# From patent US8906911B2, “Chemokine receptor antagonists” (AbbVie Inc., priority 2012, dated 2014)
# Where two headings read alike, the source gives them in different places.
# What was measured:
# rat CCR2 = rat CCR2 (Rattus norvegicus (Rat), UniProt O55193); assay: Inhibition of native agonist (rat MCP-1)-induced intracellular calcium release, calcium flux assay in CHO cells expressing rat CCR2 and Gα16; type: cell-based; conditions: read-out: rCCR2 Kb
# Excerpt: (§1) CHO cells expressing human CCR2B were generated as follows. cDNA for human CCR2B (cloned from human blood) was cloned into plasmid pcDNA3.1 (from Invitrogen). The resulting plasmids were separately transfected into CHO cells expressing human Gα16 (from Molecular Devices). […] CHO cells expressing rat CCR2 were generated as follows. cDNA for rat CCR2 (cloned from rat macrophage) was cloned into plasmid pEF-flag (from Chinese Academy of Science). The resulting plasmids were transfected into CHO cells expressing human Gα16 (from […]).
# (§2) Inhibition of Native Agonist-Induced Intracellular Calcium Release in Cells Expressing hCCR2B or rCCR2
# (§3) Calcium flux assays were performed in CHO cells expressing human CCR2B and Gα16 coupling protein, or rat CCR2 and Gα16 coupling protein. All compounds were dissolved in DMSO and assays run at a final DMSO concentration of 0.25% (v/v). Human MCP-1 was purchased from PeproTech and used at a final assay concentration of 2 nM, while rat MCP-1 was purchased from R&D and used at a final assay concentration of 4 nM. Assays with cells expressing human CCR2B were performed with human MCP-1, while assays with cells expressing rat CCR2 were performed with rat MCP-1.
# (§4) Briefly, cells were cultured overnight in a microtiter plate at 8000 per well. The next day, the resultant adherent cells were incubated in assay buffer (20 mM HEPES, pH 7.4, 0.1% bovine serum albumin, and 2.5 mM probenocid in Hank's Buffered Saline Solution) containing Calcium 4 dye (Molecular Probes) at 37° C. for 60 minutes. Calcium flux assays were performed on a FLIPR^Tetra instrument (Molecular Devices) by adding compound to the cells followed by addition of native agonist and measuring the change in fluorescence as a function of time. Maximal and minimal values for fluorescence were determined using native agonist (2 nM MCP-1) for human or rat CCR2, or buffer addition, respectively. Fluorescence values were used to calculate the percent inhibition at a given compound concentration and the data fit to a sigmoidal curve in a semi-log plot to determine IC50 values. The Kb value is calculated as Kb=IC50/(1+[agonist]/EC50), where [agonist] is the concentration of agonist used and EC50 is the agonist potency determined in the previous experiments. Mean Kb values and IC50 of the compounds assayed are reported in Table 2 and Table 3 respectively.
# human CCR2B = human CCR2B (Homo sapiens (Human), UniProt P41597); assay: Inhibition of native agonist (human MCP-1)-induced intracellular calcium release, calcium flux assay in CHO cells expressing human CCR2B and Gα16; type: cell-based; conditions: for IC50: read-out: hCCR2B IC50; for Kb: read-out: hCCR2B Kb
# Sequence of human CCR2B (P41597 other isoform, or with tags, fused parts or gaps): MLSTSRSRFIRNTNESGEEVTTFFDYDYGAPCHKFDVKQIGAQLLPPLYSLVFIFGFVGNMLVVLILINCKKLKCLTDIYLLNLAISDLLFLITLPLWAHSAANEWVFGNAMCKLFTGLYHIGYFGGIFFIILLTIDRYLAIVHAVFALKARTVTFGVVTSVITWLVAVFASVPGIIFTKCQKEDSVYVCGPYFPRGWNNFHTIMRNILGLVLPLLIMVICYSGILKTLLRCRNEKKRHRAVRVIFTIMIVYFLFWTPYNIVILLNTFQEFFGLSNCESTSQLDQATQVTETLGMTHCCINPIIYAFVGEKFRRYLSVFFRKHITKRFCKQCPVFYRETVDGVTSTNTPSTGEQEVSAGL
# Excerpt: as §1, §2, §3, §4
# Sequence of rat CCR2 (O55193 whole entry): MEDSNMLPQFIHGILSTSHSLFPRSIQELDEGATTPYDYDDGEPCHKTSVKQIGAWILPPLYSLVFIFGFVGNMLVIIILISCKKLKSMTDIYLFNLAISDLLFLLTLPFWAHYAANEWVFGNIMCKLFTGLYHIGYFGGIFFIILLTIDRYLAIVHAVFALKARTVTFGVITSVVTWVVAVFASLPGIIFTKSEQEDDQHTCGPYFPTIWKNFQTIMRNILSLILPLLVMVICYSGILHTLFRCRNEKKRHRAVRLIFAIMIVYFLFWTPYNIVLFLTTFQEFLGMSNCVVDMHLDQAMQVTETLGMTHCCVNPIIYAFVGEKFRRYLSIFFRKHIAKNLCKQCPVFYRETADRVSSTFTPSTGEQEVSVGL
Kb (rat CCR2),"IC50 (human CCR2B; calcium flux, human MCP-1 2 nM)",Kb (human CCR2B),SMILES,IC50 (human CCR2B)
317 nM,1600 nM,394 nM,"CO[C@@H]1COCC[C@@H]1N[C@@H]1C[C@H]2CCC[C@@]2(C(=O)N2C[C@@H]3C[C@H]2CN3c2nccc(C(F)(F)F)c2C)C1 (racemic) [Example 38, 1,5-anhydro-2,3-dideoxy-4-O-methyl-3-{[(2R,3aR,6aR)-3a-({(1S,4S)-5-[3-methyl-4-(trifluoromethyl)pyridin-2-yl]-2,5-diazabicyclo[2.2.1]hept-2-yl}carbonyl)octahydropentalen-2-yl]amino}-D-erythro-pentitol]",–
29 nM,–,–,CO[C@@H]1COCC[C@H]1N[C@@H]1C[C@H]2CCC[C@@]2(C(=O)N2C[C@@H]3C[C@H]2CN3c2cc(C(F)(F)F)cnn2)C1 (stereo in doubt) [Example 6],–
–,> 50000 nM,–,"CN(C1CCOCC1)C1CC2CCCC2(C(=O)N2CCN(c3ccc(C(F)(F)F)cc3)CC2)C1 (centres unmarked) [Compound A, reference compound]",–
–,28000 nM,–,"O=C(N1CCN(c2ccc(C(F)(F)F)cc2)CC1)C12CCCC1CC(N1CCC(c3ccccc3)CC1)C2 (centres unmarked) [Compound B, reference compound]",–
694 nM,2500 nM,614 nM,"CO[C@@H]1COCC[C@@H]1N[C@@H]1C[C@H]2CCC[C@@]2(C(=O)N2C[C@H]3C[C@@H]2CN3c2cc(C(F)(F)F)ccn2)C1 [Example 3, 1,5-anhydro-2,3-dideoxy-4-O-methyl-3-{[(2R,3aR,6aR)-3a-({(1R,4R)-5-[4-(trifluoromethyl)pyridin-2-yl]-2,5-diazabicyclo[2.2.1]hept-2-yl}carbonyl)octahydropentalen-2-yl]amino}-D-erythro-pentitol]",–
> 6940 nM,25000 nM,> 6140 nM,"CO[C@@H]1COCC[C@H]1N[C@@H]1C[C@H]2CCC[C@@]2(C(=O)N2C[C@H]3C[C@@H]2CN3c2cc(C(F)(F)F)ccn2)C1 [Example 4, 1,5-anhydro-2,3-dideoxy-4-O-methyl-3-{[(2R,3aR,6aR)-3a-({(1R,4R)-5-[4-(trifluoromethyl)pyridin-2-yl]-2,5-diazabicyclo[2.2.1]hept-2-yl}carbonyl)octahydropentalen-2-yl]amino}-D-threo-pentitol]",–
7 nM,–,–,"CO[C@@H]1COCC[C@@H]1N[C@@H]1C[C@H]2CCC[C@@]2(C(=O)N2C[C@@H]3C[C@H]2CN3c2cc(C(F)(F)F)cnn2)C1 [Example 5, 1,5-anhydro-2,3-dideoxy-4-O-methyl-3-{[(2R,3aR,6aR)-3a-({(1S,4S)-5-[5-(trifluoromethyl)pyridazin-3-yl]-2,5-diazabicyclo[2.2.1]hept-2-yl}carbonyl)octahydropentalen-2-yl]amino}-D-erythro-pentitol]",–
74 nM,–,–,"CO[C@@H]1COCC[C@@H]1N[C@@H]1C[C@H]2CCC[C@@]2(C(=O)N2C[C@@H]3C[C@H]2CN3c2cc(C(F)(F)F)cc(C)n2)C1 [Example 11, 1,5-anhydro-2,3-dideoxy-4-O-methyl-3-{[(2R,3aR,6aR)-3a-({(1S,4S)-5-[6-methyl-4-(trifluoromethyl)pyridin-2-yl]-2,5-diazabicyclo[2.2.1]hept-2-yl}carbonyl)octahydropentalen-2-yl]amino}-D-erythro-pentitol]",–
91 nM,821 nM,201 nM,"CO[C@@H]1COCC[C@@H]1N[C@@H]1C[C@H]2CCC[C@@]2(C(=O)N2C[C@@H]3C[C@H]2CN3c2nccc(C(F)(F)F)c2F)C1 [Example 21, 1,5-anhydro-2,3-dideoxy-3-{[(2R,3aR,6aR)-3a-({(1S,4S)-5-[3-fluoro-4-(trifluoromethyl)pyridin-2-yl]-2,5-diazabicyclo[2.2.1]hept-2-yl}carbonyl)octahydropentalen-2-yl]amino}-4-O-methyl-D-erythro-pentitol]",–
158 nM,1110 nM,272 nM,"CO[C@@H]1COCC[C@@H]1N[C@@H]1C[C@H]2CCC[C@@]2(C(=O)N2C[C@@H]3C[C@H]2CN3c2cccc(C(F)(F)F)c2C)C1 [Example 23, 1,5-anhydro-2,3-dideoxy-4-O-methyl-3-{[(2R,3aR,6aR)-3a-({(1S,4S)-5-[2-methyl-3-(trifluoromethyl)phenyl]-2,5-diazabicyclo[2.2.1]hept-2-yl}carbonyl)octahydropentalen-2-yl]amino}-D-erythro-pentitol]",–
116 nM,1390 nM,341 nM,"CO[C@@H]1COCC[C@@H]1N[C@@H]1C[C@H]2CCC[C@@]2(C(=O)N2C[C@@H]3C[C@H]2CN3c2cc(C)cc(C(F)(F)F)c2)C1 [Example 24, 1,5-anhydro-2,3-dideoxy-4-O-methyl-3-{[(2R,3aR,6aR)-3a-({(1S,4S)-5-[3-methyl-5-(trifluoromethyl)phenyl]-2,5-diazabicyclo[2.2.1]hept-2-yl}carbonyl)octahydropentalen-2-yl]amino}-D-erythro-pentitol]",–
22 nM,1020 nM,250 nM,"COc1ccc(N2C[C@@H]3C[C@H]2CN3C(=O)[C@@]23CCC[C@@H]2C[C@@H](N[C@H]2CCOC[C@H]2OC)C3)cc1C(F)(F)F [Example 31, 1,5-anhydro-2,3-dideoxy-3-{[(2R,3aR,6aR)-3a-({(1S,4S)-5-[4-methoxy-3-(trifluoromethyl)phenyl]-2,5-diazabicyclo[2.2.1]hept-2-yl}carbonyl)octahydropentalen-2-yl]amino}-4-O-methyl-D-erythro-pentitol]",–

SMILES,Kb (rat CCR2),"IC50 (human CCR2B; calcium flux, human MCP-1 2 nM)",Kb (human CCR2B),IC50 (human CCR2B)
"CO[C@@H]1COCC[C@@H]1N[C@@H]1C[C@H]2CCC[C@@]2(C(=O)N2[C@@H]3CC[C@H]2CN(c2cc(C(F)(F)F)ccn2)C3)C1 [Example 8, 1,5-anhydro-2,3-dideoxy-4-O-methyl-3-{[(2R,3aR,6aR)-3a-({(1R,5S)-3-[4-(trifluoromethyl)pyridin-2-yl]-3,8-diazabicyclo[3.2.1]oct-8-yl}carbonyl)octahydropentalen-2-yl]amino}-D-erythro-pentitol]",> 6940 nM,14400 nM,> 3550 nM,–
"O=C(O)c1cccc(C2CCN([C@H]3C[C@H]4CCC[C@@]4(C(=O)N4C[C@@H]5C[C@H]4CN5c4cc(C(F)(F)F)ccn4)C3)CC2)c1 [Example 9, 3-{1-[(2S,3aR,6aR)-3a-({(1S,4S)-5-[4-(trifluoromethyl)pyridin-2-yl]-2,5-diazabicyclo[2.2.1]hept-2-yl}carbonyl)octahydropentalen-2-yl]piperidin-4-yl}benzoic acid]",22 nM,–,116 nM,470 nM
"O=C(O)c1cccc(C2CCN([C@@H]3C[C@H]4CCC[C@@]4(C(=O)N4C[C@@H]5C[C@H]4CN5c4cc(C(F)(F)F)ccn4)C3)CC2)c1 [Example 10, 3-{1-[(2R,3aR,6aR)-3a-({(1S,4S)-5-[4-(trifluoromethyl)pyridin-2-yl]-2,5-diazabicyclo[2.2.1]hept-2-yl}carbonyl)octahydropentalen-2-yl]piperidin-4-yl}benzoic acid]",38 nM,1600 nM,394 nM,–
"CO[C@@H]1COCC[C@@H]1N[C@@H]1C[C@H]2CCC[C@@]2(C(=O)N2C[C@@H]3C[C@H]2CN3c2cccc(C(F)(F)F)c2F)C1 [Example 17, 1,5-anhydro-2,3-dideoxy-3-{[(2R,3aR,6aR)-3a-({(1S,4S)-5-[2-fluoro-3-(trifluoromethyl)phenyl]-2,5-diazabicyclo[2.2.1]hept-2-yl}carbonyl)octahydropentalen-2-yl]amino}-4-O-methyl-D-erythro-pentitol]",160 nM,1290 nM,316 nM,–
